Test results as given in patent publication US8952024B2, “Herbicidal pyrimidone derivatives” (E I du Pont de Nemours and Company, priority 2009, dated 2015).

Columns and labels:
Assay in all cases: Test D pre-/postemergence plant response
Format in all cases: in vivo
[1] = tested on: bluegrass (annual bluegrass, Poa annua)
Method in brief: (§1)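 Ratings come from greenhouse-grown weeds in loam and sand treated pre- or postemergence (postemergence height 2 to 18 cm). Evaluation after 14–21 days, visual, relative to controls, on a 0–100 control scale.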

[2] = tested on: dayflower (Virginia (VA) dayflower, Commelina virginica)
Method in brief: as §1

[3] = tested on: Surinam grass (Brachiaria decumbens)
Method in brief: as §1

[4] = tested on: guineagrass (Panicum maximum)
Method in brief: as §1

[5] = tested on: Italian ryegrass (Lolium multiflorum)
Method in brief: as §1

[6] = tested on: ragweed (common ragweed, Ambrosia elatior)
Method in brief: as §1

[7] = tested on: large crabgrass (Digitaria sanguinalis)
Method in brief: as §1

[8] = tested on: dallisgrass (Paspalum dilatatum)
Method in brief: as §1

[9] = tested on: itchgrass (Rottboellia cochinchinensis)
Method in brief: as §1

[10] = tested on: quackgrass (Elytrigia repens)
Method in brief: as §1

[11] = tested on: barnyardgrass (Echinochloa crus-galli)
Method in brief: as §1

[12] = tested on: naked crabgrass (Digitaria nuda)
Method in brief: as §1

[13] = tested on: signalgrass (broadleaf signalgrass, Brachiaria platyphylla)
Method in brief: as §1

[14] = tested on: sandbur (southern sandbur, Cenchrus echinatus)
Method in brief: as §1

[15] = Postemergence, 16 g ai/ha, scale 0 to 100
[16] = Postemergence, 31 g ai/ha, scale 0 to 100 (0 no effect, 100 complete control)
[17] = Postemergence, 125 g ai/ha, scale 0 to 100 (0 no effect, 100 complete control)
[18] = Postemergence, 62 g ai/ha, scale 0 to 100 (0 no effect, 100 complete control)
[19] = Preemergence, 16 g ai/ha, scale 0 to 100, 0 no effect, 100 complete control
[20] = Preemergence, 31 g ai/ha, scale 0 to 100 (0 no effect, 100 complete control)
[21] = Preemergence, 62 g ai/ha, scale 0 to 100
[22] = Preemergence, 125 g ai/ha, scale 0 to 100
[23] = Postemergence, 31 g ai/ha, scale 0 to 100

Cc1ccc(Cl)cc1-n1c(-c2ccccc2)ncc(C(=O)C2=C(O)CCCC2=O)c1=O [Compound 52]
Plant response rating, Bluegrass [1, 15]: 15 | Plant response rating, Bluegrass [1, 16]: 25 | Plant response rating, Bluegrass [1, 17]: 35 | Plant response rating, Bluegrass [1, 18]: 35 | Plant response rating, Bluegrass [1, 19]: 0 | Plant response rating, Bluegrass [1, 20]: 0 | Plant response rating, Bluegrass [1, 21]: 0 | Plant response rating, Bluegrass [1, 22]: 20 | Plant response rating, Dayflower, VA [2, 15]: 5 | Plant response rating, Dayflower, VA [2, 23]: 5 | Plant response rating, Dayflower, VA [2, 17]: 60 | Plant response rating, Dayflower, VA [2, 18]: 30 | Plant response rating, Dayflower, VA [2, 19]: 0 | Plant response rating, Dayflower, VA [2, 20]: 0 | Plant response rating, Dayflower, VA [2, 21]: 0 | Plant response rating, Dayflower, VA [2, 22]: 40 | Plant response rating, Surinam Grass [3, 23]: 65 | Plant response rating, Surinam Grass [3, 17]: 90 | Plant response rating, Surinam Grass [3, 18]: 80 | Plant response rating, Surinam Grass [3, 19]: 0 | Plant response rating, Surinam Grass [3, 20]: 98 | Plant response rating, Surinam Grass [3, 22]: 98 | Plant response rating, Guineagrass [4, 15]: 50 | Plant response rating, Guineagrass [4, 23]: 70 | Plant response rating, Guineagrass [4, 17]: 75 | Plant response rating, Guineagrass [4, 18]: 75 | Plant response rating, Guineagrass [4, 19]: 0 | Plant response rating, Guineagrass [4, 21]: 50 | Plant response rating, Ryegrass, Italian [5, 15]: 0 | Plant response rating, Ryegrass, Italian [5, 23]: 0 | Plant response rating, Ryegrass, Italian [5, 17]: 35 | Plant response rating, Ryegrass, Italian [5, 18]: 15 | Plant response rating, Ryegrass, Italian [5, 19]: 0 | Plant response rating, Ryegrass, Italian [5, 20]: 0 | Plant response rating, Ryegrass, Italian [5, 22]: 15 | Plant response rating, Ragweed [6, 15]: 90 | Plant response rating, Ragweed [6, 23]: 95 | Plant response rating, Ragweed [6, 17]: 95 | Plant response rating, Ragweed [6, 18]: 95 | Plant response rating, Ragweed [6, 19]: 30 | Plant response rating, Ragweed [6, 20]: 50 | Plant response rating, Ragweed [6, 22]: 98 | Plant response rating, Crabgrass, Large [7, 15]: 65 | Plant response rating, Crabgrass, Large [7, 23]: 70 | Plant response rating, Crabgrass, Large [7, 17]: 70 | Plant response rating, Crabgrass, Large [7, 18]: 70 | Plant response rating, Crabgrass, Large [7, 19]: 0 | Plant response rating, Crabgrass, Large [7, 20]: 20 | Plant response rating, Crabgrass, Large [7, 21]: 75 | Plant response rating, Crabgrass, Large [7, 22]: 98 | Plant response rating, Dallisgrass [8, 15]: 60 | Plant response rating, Dallisgrass [8, 23]: 65 | Plant response rating, Dallisgrass [8, 17]: 75 | Plant response rating, Dallisgrass [8, 18]: 70 | Plant response rating, Dallisgrass [8, 19]: 5 | Plant response rating, Dallisgrass [8, 20]: 10 | Plant response rating, Dallisgrass [8, 21]: 50 | Plant response rating, Dallisgrass [8, 22]: 95 | Plant response rating, Itchgrass [9, 15]: 25 | Plant response rating, Itchgrass [9, 23]: 50 | Plant response rating, Itchgrass [9, 17]: 65 | Plant response rating, Itchgrass [9, 18]: 65 | Plant response rating, Itchgrass [9, 19]: 0 | Plant response rating, Itchgrass [9, 20]: 0 | Plant response rating, Itchgrass [9, 21]: 0 | Plant response rating, Itchgrass [9, 22]: 5 | Plant response rating, Quackgrass [10, 15]: 5 | Plant response rating, Quackgrass [10, 23]: 10 | Plant response rating, Quackgrass [10, 17]: 20 | Plant response rating, Quackgrass [10, 18]: 15 | Plant response rating, Quackgrass [10, 19]: 0 | Plant response rating, Quackgrass [10, 20]: 0 | Plant response rating, Quackgrass [10, 22]: 20 | Plant response rating, Barnyardgrass [11, 15]: 75 | Plant response rating, Barnyardgrass [11, 16]: 75 | Plant response rating, Barnyardgrass [11, 17]: 80 | Plant response rating, Barnyardgrass [11, 18]: 75 | Plant response rating, Barnyardgrass [11, 19]: 0 | Plant response rating, Barnyardgrass [11, 20]: 0 | Plant response rating, Barnyardgrass [11, 21]: 0 | Plant response rating, Barnyardgrass [11, 22]: 10 | Plant response rating, Crabgrass, Naked [12, 15]: 70 | Plant response rating, Crabgrass, Naked [12, 23]: 75 | Plant response rating, Crabgrass, Naked [12, 17]: 95 | Plant response rating, Crabgrass, Naked [12, 18]: 95 | Plant response rating, Crabgrass, Naked [12, 19]: 0 | Plant response rating, Crabgrass, Naked [12, 20]: 0 | Plant response rating, Crabgrass, Naked [12, 21]: 20 | Plant response rating, Crabgrass, Naked [12, 22]: 80 | Plant response rating, Signalgrass [13, 15]: 50 | Plant response rating, Signalgrass [13, 23]: 60 | Plant response rating, Signalgrass [13, 17]: 90 | Plant response rating, Signalgrass [13, 18]: 80 | Plant response rating, Signalgrass [13, 19]: 0 | Plant response rating, Signalgrass [13, 20]: 0 | Plant response rating, Signalgrass [13, 22]: 90 | Plant response rating, Sandbur [14, 15]: 65 | Plant response rating, Sandbur [14, 23]: 65 | Plant response rating, Sandbur [14, 17]: 80 | Plant response rating, Sandbur [14, 18]: 75 | Plant response rating, Sandbur [14, 19]: 0 | Plant response rating, Sandbur [14, 20]: 0 | Plant response rating, Sandbur [14, 22]: 98
